Assays:
[1] = molecular target: T1, P2Y4-R (Homo sapiens, UniProt P51582); assay: [Ca2+]i increase in 1321N1 astrocytoma cells expressing P2Y4-R; type: cell-based; details: n.d.r = no detectable response up to 100 μM
T1 construct: expressed in transfected cells; host or cells: 1321N1 astrocytoma cells
Description: (§1) Green fluorescent protein (GFP) constructs of human P2Y2-R, P2Y4-R and P2Y6-R were expressed in 1321N1 astrocytoma cells, which lack endogenous expression of P2X- and P2Y-receptors. The respective cDNA of the receptor gene was cloned into a pEGFPN1 vector. After transfection using FuGENE 6 Transfection Reagent (Roche Molecular Biochemicals, Mannheim, Germany), the cells were selected with 0.5 mg/ml G418 (geneticine; Merck Chemicals, Darmstadt, Germany) and grown in Dulbecco's modified Eagles' medium (DMEM) supplemented with 10% fetal calf serum, 100 U/ml penicillin and […] at 37° C. and 5% CO2. The expression and cell membrane localization of the respective P2Y receptors was confirmed through the analysis of the GFP fluorescence. The functionality of the expressed GFP-labeled receptor in cells was verified by recording a change of [Ca^2+]i after stimulation with the appropriate receptor agonist.
(§2) 1321N1 astrocytoma cells transfected with the respective plasmid for P2YR-GFP expression plated on coverslips (22 mm diameter) and grown to approximately 80% density were incubated with 2 μM fura 2/AM and 0.02% pluronic acid in Na-HBS buffer (Hepes buffered saline: 145 mM NaCl, 5.4 mM KCl, 1.8 mM CaCl2, 1 mM MgCl2, 25 mM glucose, 20 mM Hepes/Tris pH 7.4) for 30 min at 37° C. The cells were superfused (1 ml/min, 37° C.) with different concentrations of nucleotide in Na-HBS buffer, and the nucleotide-induced change of [Ca^2+]i was measured by detecting the respective emission intensity of fura 2/AM at 510 nm with after 340 nm and 380 nm excitations (Ubl et al., 1998). The average maximal amplitude of the responses and the respective standard errors were calculated from the ratio of the fura 2/AM fluorescence intensities with excitations at 340 nm and 380 nm (only MT-labeled cells were analysed). Microsoft Excel (Microsoft Corp., Redmond, Wash., USA) and SigmaPlot (SPSS Inc., Chicago, Ill., USA) were used to derive the concentration-response curves and EC50 values from the average response amplitudes obtained in at least three independent experiments (Ecke et al., 2006, 2008). Only cells with a clear MT-signal and with the typical calcium response kinetics upon agonist pulse application were included in the data analysis. The GFP-tagged P2Y receptors are suitable for pharmacological and physiological studies, as previously reported (Tulapurkar et al., 2004, 2006; Zylberg et al., 2007).
(§3) In this study, analogues 13-17 were tested for their potency and selectivity at P2Y2,4,6-receptors based on measurements of increases in intracellular calcium concentrations in 1321N1 astrocytoma cells transfected with the respective plasmid, as described in Materials and Methods, and the results are summarized in Table 2.

[2] = molecular target: P2Y2-R (Homo sapiens, UniProt P41231); assay: [Ca2+]i increase in 1321N1 astrocytoma cells expressing P2Y2-R; type: cell-based; design: expressed in transfected cells; host or cells: 1321N1 astrocytoma cells; details: 1321N1 astrocytoma cells, [Ca2+]i; n.d.r = no detectable response up to 100 μM
Chain of P2Y2-R (P41231 whole entry): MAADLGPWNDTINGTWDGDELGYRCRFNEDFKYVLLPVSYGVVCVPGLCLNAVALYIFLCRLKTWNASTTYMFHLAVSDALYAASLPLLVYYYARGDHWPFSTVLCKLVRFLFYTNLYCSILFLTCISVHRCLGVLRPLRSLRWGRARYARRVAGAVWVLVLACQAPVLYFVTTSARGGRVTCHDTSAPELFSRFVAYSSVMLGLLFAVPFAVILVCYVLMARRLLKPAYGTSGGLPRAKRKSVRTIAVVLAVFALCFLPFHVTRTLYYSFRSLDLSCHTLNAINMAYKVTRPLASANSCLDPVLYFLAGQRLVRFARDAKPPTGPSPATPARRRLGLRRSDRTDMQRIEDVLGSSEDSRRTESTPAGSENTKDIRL
Description: as §1, §2, §3

T1 sequence (P51582 whole entry): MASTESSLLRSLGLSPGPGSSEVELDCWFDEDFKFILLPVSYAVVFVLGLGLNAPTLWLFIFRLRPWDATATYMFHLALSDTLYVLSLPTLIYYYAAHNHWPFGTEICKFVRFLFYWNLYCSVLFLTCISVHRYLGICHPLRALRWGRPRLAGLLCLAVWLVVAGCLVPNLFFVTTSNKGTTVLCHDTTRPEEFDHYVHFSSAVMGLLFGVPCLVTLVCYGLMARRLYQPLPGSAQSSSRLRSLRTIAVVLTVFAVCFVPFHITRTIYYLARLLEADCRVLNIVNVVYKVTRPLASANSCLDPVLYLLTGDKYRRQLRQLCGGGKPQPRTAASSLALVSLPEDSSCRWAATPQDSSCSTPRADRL

## [BH3-][P+](O)(OCC1OC(n2cc(OC)c(=O)[nH]c2=O)C(O)C1O)OP(=O)(O)O (single isomer, unassigned) [Analogue 13A, 5-methoxyuridine-5′-O-(α-boranodiphosphate)]
[1]
  Potencies (EC50) at the P2Y4-R: n.d.r
[2]
  Potencies (EC50) at the P2Y2-R: n.d.r

— patent publication US9221868B2, “Uridine di- or tri-phosphate derivatives and uses thereof” (BAR-ILAN UNIVERSITY, priority 2010, dated 2015)
